Reference: patent publication US20150374702A1 (CATHOLIC UNIVERSITY INDUSTRY ACADEMIC COOPERATION FOUNDATION, priority 2013, published 2015)

Legend:
Capan-1 xenograft tumor [1] = test: Suppression of tumor growth by combinatory treatment of pentoxifylline and gemcitabine; type: in vivo, BALB/c nu/nu mice; conditions: pentoxifylline alone 100 mg/kg/d i.p., 28 days
Description: (§1) Female BALB/c nu/nu mice (5 to 6 weeks old) were purchased from Orient Bio Inc. (Seongnam City, Gyeonggi-do, Korea), and were raised in a germ-free animal breeding facility at the Catholic University of Korea, Catholic Medical Center (Seoul, Korea). The animals were raised in a standard state, and supplied with food and water ad libitum. The animals were taken care of in accordance with the guidelines of the Institutional Animal Care and Use Committee (IACUC) of School of Medicine of the Catholic University of Korea (Approval Number; CUMC-2010-0141-01). For induction of tumor, Capan-1 cells were harvested after the trypsin treatment, 5×10^6 living cells were subcutaneously injected into the right flanks of the mice. After tumor was induced, the mice were sacrificed, tumor samples were obtained, and experiments were performed according to each Example to be described below.
The tumor size (mm^3) was calculated by using the equation: V=(a×b^2)/2 (a is the largest diameter of tumor, and b is the smallest diameter of tumor). The relative tumor size was normalized with respect to the volume when a drug treatment of Capan-1 xenograft tumor was initiated. At least three mice per group were used, and the results were presented as an average standard error (SE). The statistical significance was determined by using a 2-sample t-test inferred from the Microsoft Excel 2007. […]

mouse TGF-β1 = test: TGF-β1 mRNA expression in tumor (quantitative real-time RT-PCR); type: in vivo; conditions: pentoxifylline versus control; direction not stated at b84
Description: as §1, with “After tumor was induced, the mice were sacrificed, tumor samples were obtained, and experiments were performed according to each Example to be described below.” left out
(§2) For the quantitative real-time RT-PCR analysis, total RNAs were isolated from tumor homogenates using the Trizol method and quantified by Nanodrop spectrophotometer (ND-1000). After 1 μg of total RNAs was reverse transcribed from the tissue with AccuPower CycleScript RT PreMix (Bioneer), a quantitative real-time polymerase chain reaction was performed using the LightCycler 480 Real-Time PCR System II (Roche) with SYBR Green Master mix (Roche) according to the manufacturer's recommendation. […]
All expression data were normalized using the GAPDH expression. The relative gene expression was quantified using the ΔΔCt method (2-ΔΔCt).

α-SMA = test: Immunohistochemical staining of α-SMA in tumor sections; type: in vivo, mice; conditions: pentoxifylline for two weeks; p<0.001
Description: as §1, with “below. […] Immunohistochemical staining for α-SMA, TGF-β1, and CTGF was performed using Dako Envision Detection System ([…], DAKO). Paraffin-embedded, formalin fixed samples were cut into sections having a thickness of 3 μm, deparaffinized and rehydrated. For antigen retrieval, a pressure cooker of a microwave method was used as a target retrieval solution ([…], DAKO) for 5 minutes (pH 9.0), and cooled at room temperature for 20 minutes. […]” for “below.”

collagen type I = test: Collagen type I content in tumor sections (immunofluorescence); type: in vivo, mice
Description: as §1

CTGF = test: Immunohistochemical staining of CTGF in tumor sections; type: in vivo, mice; conditions: pentoxifylline for two weeks; p<0.05
Description: as §1, with “below. […] Immunohistochemical staining for α-SMA, TGF-β1, and CTGF was performed using Dako Envision Detection System ([…], DAKO). Paraffin-embedded, formalin fixed samples were cut into sections having a thickness of 3 μm, deparaffinized and rehydrated. For antigen retrieval, a pressure cooker of a microwave method was used as a target retrieval solution ([…], DAKO) for 5 minutes (pH 9.0), and cooled at room temperature for 20 minutes. […]” for “below.”

TGF-β1 [2] = test: Total and active TGF-β1 in tumor homogenate (ELISA); type: in vivo, mice; conditions: ELISA of tumor homogenate
Description: as §1
Frozen tumors were cut into small pieces, and homogenized using Precellys 24 homogenizer (Bertin Technologies) in Tissue Extraction Reagent I (Invitrogen) containing protease inhibitor cocktail (Complete Mini, Roche). […] Total protein concentrations were determined by BCA protein assay kit (Pierce). Total and active TGF-β1 concentrations were determined using TGF-β1 ELISA kit (eBioscience) according to the manufacturer's protocol.

TGF-β1 [3] = test: Immunohistochemical staining of TGF-β1 in tumor sections; type: in vivo, mice
Description: as §1, with “below. […] Immunohistochemical staining for α-SMA, TGF-β1, and CTGF was performed using Dako Envision Detection System ([…], DAKO). Paraffin-embedded, formalin fixed samples were cut into sections having a thickness of 3 μm, deparaffinized and rehydrated. For antigen retrieval, a pressure cooker of a microwave method was used as a target retrieval solution ([…], DAKO) for 5 minutes (pH 9.0), and cooled at room temperature for 20 minutes. […]” for “below.”

CD31 = test: Blood vessel density by CD31 immunostaining in tumor sections; type: in vivo, BALB/c nu/nu mice; conditions: with versus without pentoxifylline
Description: as §1

[4] = test system: mouse COLIA1 (collagen type I, alpha 1); test: Collagen type I mRNA expression in tumor (quantitative real-time RT-PCR); type: in vivo; conditions: pentoxifylline pretreatment for two weeks; P<0.02
Description: as §1, with “After tumor was induced, the mice were sacrificed, tumor samples were obtained, and experiments were performed according to each Example to be described below.” left out
as §2, with “In order to confirm the mRNA expression level of collagen type I, RT-PCR was performed. For” for “For”

Capan-1 xenograft tumor [5] = test: Suppression of tumor growth by doxorubicin or liposomal doxorubicin after pentoxifylline pretreatment; type: in vivo, BALB/c nu/nu mice; conditions: doxorubicin 8 mg/kg i.v., with or without pentoxifylline pretreatment 100 mg/kg/d for two weeks; normalized to volume at treatment start; P<0.05
Description: as §1

SMILES	anti-tumor effects compared to the control group of saline treatment (Capan-1 xenograft tumor [1])	TGF-β1 mRNA expression (mouse TGF-β1)	reduction of immunostaining of α-SMA in the tumor sections (α-SMA) [%]	collagen content at high dose (100 mg/kg) versus low dose (50 mg/kg) (collagen type I; i.p. for two weeks, P<0.05)	collagen type I contents in central and marginal regions of the tumor sections (collagen type I; pentoxifylline i.p. for two weeks versus saline)	reduction of immunostaining of CTGF in the tumor sections (CTGF) [%]	effect on active TGF-β1 level in the tumor tissue (TGF-β1 [2])	effect on total TGF-β1 level in the tumor tissue (TGF-β1 [2])	effect on TGF-β1 immunohistochemical staining in the tumor tissue (TGF-β1 [3])	blood vessel density exhibited by CD31 immunostaining (CD31)	reduction of mRNA expression of collagen I compared to the control group [4] [%]	relative tumor size at day 23 (Capan-1 xenograft tumor [5])
CC(=O)CCCCn1c(=O)c2c(ncn2C)n(C)c1=O [pentoxifylline, 1-(5-oxohexyl)-3,7-dimethylxanthine]	anti-tumor effects did not appear	big difference	66	slightly lower	reduced	25	no effects	no effects	no effects	no difference between groups	72	–
COc1cccc2c1C(=O)c1c(O)c3c(c(O)c1C2=O)C[C@@](O)(C(=O)CO)C[C@@H]3O[C@H]1C[C@H](N)[C@H](O)[C@H](C)O1 [doxorubicin]	–	–	–	–	–	–	–	–	–	–	–	1.52
